Laboratory results taken from ChEMBL document CHEMBL4732194, “Indolyl-α-keto-1,3,4-oxadiazoles: Synthesis, anti-cell proliferation activity, and inhibition of tubulin polymerization” (Bioorg Med Chem Lett, 2021).
Calls of active or inactive are those of the source. The rule behind the calls is not given here.

Experiments:
[1] = tested on: U-937; experiment: Antiproliferative activity against human U-937 cells assessed as cell survival at 10 uM (reference value: 100 +/ 8.7 %); assay type: functional; details: read-out: Activity
[2] = tested on: BT-474; experiment: Antiproliferative activity against human BT-474 cells assessed as cell survival at 10 uM (reference value: 100 +/ 6.3 %); assay type: functional; details: read-out: Activity
[3] = Antiproliferative activity against human SMS-SB cells assessed as cell survival at 10 uM (reference value: 100 +/ 6 %); assay type: functional; details: read-out: Activity
[4] = tested on: Jurkat; experiment: Antiproliferative activity against human Jurkat cells assessed as cell survival at 10 uM (reference value: 104.3 +/ 10.2 %); assay type: functional; details: read-out: Activity
[5] = Inhibition of porcine brain tubulin polymerization assessed as disruption of microtubule assembly measured after 1.5 hrs in presence of GTP by fluorescence based analysis; assay type: tissue-based, Sus scrofa
[6] = Antiproliferative activity against human SMS-SB cells assessed as inhibition of cell proliferation; assay type: functional, cell-based
[7] = tested on: BT-474; experiment: Antiproliferative activity against human BT-474 cells assessed as inhibition of cell proliferation; assay type: functional, cell-based
[8] = tested on: U-937; experiment: Antiproliferative activity against human U-937 cells assessed as inhibition of cell proliferation; assay type: functional, cell-based
[9] = tested on: Jurkat; experiment: Antiproliferative activity against human Jurkat cells assessed as inhibition of cell proliferation; assay type: functional, cell-based
[10] = tested on: Jurkat; experiment: Cytotoxicity against human Jurkat cells assessed as cell membrane damage by LDH assay; assay type: functional, cell-based
[11] = molecular target: Tubulin; experiment: (§1) Inhibition of tubulin polymerization (unknown origin) assessed as inhibition of microtubule formation; assay type: protein-complex assay, Homo sapiens
[12] = molecular target: Tubulin (Homo sapiens) (UniProt P68371+Q9H4B7+P0DPH7+P68366+Q13509+Q71U36+P04350+Q3ZCM7+P07437+P68363+Q9BQE3+Q6PEY2+Q13885+Q9BVA1+Q9BUF5); experiment: as §1; assay type: protein-complex assay
[13] = tested on: Jurkat; experiment: Induction of apoptotic cell death in human Jurkat cells assessed as activation of caspase 3/7 at 3 uM by fluorescence assay relative to control; assay type: functional
[14] = Inhibition of calf brain tubulin polymerization assessed as disruption of microtubule assembly measured after 20 mins in presence of GTP by turbidometric analysis; assay type: tissue-based, Bos taurus
[15] = tested on: MCF7; experiment: Antiproliferative activity against estrogen-sensitive human MCF7 cells assessed as cell growth inhibition measured after 4 days by crystal violet staining based assay; assay type: functional; details: MCF7, 96 h
[16] = tested on: Jurkat; experiment: Induction of apoptotic cell death in human Jurkat cells assessed as activation of caspase 3/7 by fluorescence assay relative to control; assay type: functional

SMILES	viability at 10 µM [1] [%]	viability at 10 µM [2] [%]	viability at 10 µM [3] [%]	viability at 10 µM [4] [%]	also measured
COc1ccc2[nH]cc(-c3nnc(C(=O)c4cc(OC)c(OC)c(OC)c4)o3)c2c1	85.5	54	74.3	88.9	
COc1ccc(C(=O)c2nnc(-c3cc4ccccc4[nH]3)o2)cc1	84.1	56.1	79.9	75.1	
O=C(c1ccccc1)c1nnc(-c2c[nH]c3ccccc23)o1	98.7	59.3	87.6	82.1	
O=C(c1ccccc1)c1nnc(-c2cn(Cc3ccc(Cl)cc3)c3ccccc23)o1	85	68.9	87.9	82	
O=C(c1ccc(F)cc1)c1nnc(-c2c[nH]c3ccccc23)o1	95.3	62.3	76.8	90.9	
COc1ccc(C(=O)c2nnc(-c3cc4ccccc4[nH]3)o2)cc1OC	75.2	67.4	76.1	67.4	
COc1cc(C(=O)c2nnc(-c3cn(Cc4ccc(Cl)cc4)c4ccccc34)o2)cc(OC)c1OC	86	68.5	96.2	80.6	
COc1cc(C(=O)c2nnc(-c3c[nH]c4ccc(Br)cc34)o2)cc(OC)c1OC	92.1	56.8	70.9	77.4	
COc1ccc(C(=O)c2nnc(-c3c[nH]c4ccccc34)o2)cc1	108	88.4	96.2	99.6	
COc1cc(C(=O)c2nnc(-c3cc4ccccc4[nH]3)o2)cc(OC)c1OC	91.2	111	35.7	44.9	
Cc1ccc(C(=O)c2nnc(-c3c[nH]c4ccccc34)o2)cc1	102	67.9	66.8	78.9	
COc1cc(/C=C/c2nnc(-c3cc(-c4ccc(Cl)cc4)n[nH]3)o2)cc(OC)c1OC					IC50 [5]: 1300 nM
O=C(Nc1ccncc1)C(=O)c1cn(Cc2ccc(Cl)cc2)c2ccccc12 [INDIBULIN]	27.1	40.9	32.9	31.6	
COc1cc(C(=O)c2nnc(-c3c[nH]c4ccccc34)o2)cc(OC)c1OC	27.5	41.1	11.6	35.2	IC50 [6]: 800 nM; IC50 [7]: 4100 nM; IC50 [8]: 7100 nM; IC50 [9]: 3100 nM; Activity [10]: inactive; IC50 [11]: 10700 nM; inhibition [12]: Dose-dependent effect; fold change (FC) [13]: 9
COc1ccc(C(=O)c2nnc(-c3c[nH]c4ccccc34)o2)cc1OC	90.3	70.2	93.5	92.5	
COc1ccc(C(=O)c2nnc(-c3c[nH]c4ccc(OC)cc34)o2)cc1	98.7	70.3	70.7	99.9	
COc1ccc(-c2[nH]c3cc(OC)ccc3c2C=O)cc1					IC50 [14]: 1500 nM; IC50 [15]: 35 nM
COc1cccc2c1C(=O)c1c(O)c3c(c(O)c1C2=O)C[C@@](O)(C(=O)CO)C[C@@H]3O[C@H]1C[C@H](N)[C@H](O)[C@H](C)O1 [DOXORUBICIN]	22.9	31.8	15.1	30.1	fold change (FC) [16]: 8
COc1ccc(C(=O)c2nnc(-c3c[nH]c4cc(F)ccc34)o2)cc1	108	72.6	101	86.4	
COc1ccc(C(=O)c2nnc(-c3c[nH]c4ccc(Br)cc34)o2)cc1	105	65.8	94.8	88.8	
